In PubChem BioAssay (NCI):
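Where inhibition never reached the appropriate level, the endpoint shown equals the highest concentration tested. Otherwise, values were interpolated linearly from a five-concentration, 48-hour dose response in 96-well plates. TGI: total growth inhibition.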

Key:
Experiment in all cases: NCI-60 cell line screen, 48 h
PC-3 prostate = test system: PC-3 prostate
SK-MEL-28 melanoma = test system: SK-MEL-28 melanoma
HCC-2998 colon = test system: HCC-2998 colon
MDA-N = test system: MDA-N
SK-OV-3 ovarian = test system: SK-OV-3 ovarian
NCI-H460 lung = test system: NCI-H460 lung
OVCAR-4 ovarian = test system: OVCAR-4 ovarian
KM12 colon = test system: KM12 colon
SF-295 CNS = test system: SF-295 CNS
COLO 205 colon = test system: COLO 205 colon
A549 NSCLC = test system: A549 NSCLC
CAKI-1 renal = test system: CAKI-1 renal
DU-145 prostate = test system: DU-145 prostate
BT-549 breast = test system: BT-549 breast
A498 renal = test system: A498 renal
SK-MEL-5 melanoma = test system: SK-MEL-5 melanoma
HOP-92 NSCLC = test system: HOP-92 NSCLC
HT29 colon = test system: HT29 colon
K-562 leukemia = test system: K-562 leukemia
SK-MEL-2 melanoma = test system: SK-MEL-2 melanoma

| SMILES | TGI (PC-3 prostate) [µM] | TGI (SK-MEL-28 melanoma) [µM] | TGI (HCC-2998 colon) [µM] | TGI (MDA-N) [µM] | TGI (SK-OV-3 ovarian) [µM] | TGI (NCI-H460 lung) [µM] | TGI (OVCAR-4 ovarian) [µM] | TGI (KM12 colon) [µM] | TGI (SF-295 CNS) [µM] | TGI (COLO 205 colon) [µM] | TGI (A549 NSCLC) [µM] | TGI (CAKI-1 renal) [µM] | TGI (DU-145 prostate) [µM] | TGI (BT-549 breast) [µM] | TGI (A498 renal) [µM] | TGI (SK-MEL-5 melanoma) [µM] | TGI (HOP-92 NSCLC) [µM] | TGI (HT29 colon) [µM] | TGI (K-562 leukemia) [µM] | TGI (SK-MEL-2 melanoma) [µM] |
| --- | --- | --- | --- | --- | --- | --- | --- | --- | --- | --- | --- | --- | --- | --- | --- | --- | --- | --- | --- | --- |
| CC(C)=C[C@@H]1C[C@H](C)c2c(O)cc(C)c3c2C1=C(C)C(=O)C3=O | 23.6 | 29.8 | 54.3 | 33.7 | 30.9 | 48.8 | 23.4 | 31.3 | 30.4 | 32.6 | 21.7 | 30.2 | 28.6 | 28.1 | 37.4 | 26.5 | 26.9 | 40.6 | 40.1 | – |
| O=C1Oc2ccccc2C(=O)/C1=C/N1C(=O)N/C(=C\c2cccc(O)c2)C1=O | > 100 | > 100 | > 100 | > 100 | > 100 | > 100 | > 100 | > 100 | > 100 | > 100 | > 100 | > 100 | > 100 | 73.2 | – | > 100 | > 100 | > 100 | – | > 100 |
| COc1ccc(C2CC(=O)CC(c3ccc(OC)cc3)C23C(=O)NC(=S)NC3=O)cc1 (centres undefined) | > 100 | > 100 | > 100 | > 100 | – | > 100 | > 100 | > 100 | > 100 | > 100 | – | > 100 | > 100 | > 100 | – | > 100 | > 100 | > 100 | > 100 | > 100 |
| COc1ccc(OC)c(-c2nc3ccccc3c(=O)[nH]2)c1 | > 100 | – | > 100 | > 100 | > 100 | > 100 | > 100 | > 100 | > 100 | > 100 | > 100 | > 100 | > 100 | > 100 | > 100 | > 100 | – | > 100 | > 100 | > 100 |
| O=C1c2cscc2C(=O)C1(O)O | > 100 | > 100 | – | > 100 | > 100 | > 100 | > 100 | > 100 | > 100 | 36.7 | > 100 | 83.7 | > 100 | 90.9 | > 100 | > 100 | > 100 | > 100 | > 100 | > 100 |
| CC1(c2nc3ccccc3[nH]2)CCC(C(N)=O)C(C)(C)O1 (centres undefined) | > 100 | > 100 | > 100 | > 100 | > 100 | – | > 100 | > 100 | > 100 | > 100 | > 100 | > 100 | > 100 | > 100 | – | > 100 | > 100 | > 100 | > 100 | > 100 |
| O=C(Cc1ccccc1)NNc1nc(NNC(=O)c2ccncc2)nc(Nc2ccccc2)n1 | – | > 10 | > 10 | > 10 | > 10 | > 10 | > 10 | > 10 | – | > 10 | – | > 10 | > 10 | > 10 | – | – | > 10 | > 10 | > 10 | – |
| COc1c(C)c(C/C=C(\C)CCCCO)c(OC)c(OC)c1OC | > 100 | – | – | > 100 | > 100 | 35.1 | > 100 | 41.5 | > 100 | > 100 | 69.6 | – | > 100 | > 100 | – | > 100 | > 100 | > 100 | > 100 | > 100 |
| COc1ccc(C2=Nn3c(nc4sc(-c5ccccc5)cc4c3=O)SC2)cc1 | > 100 | > 100 | > 100 | > 100 | > 100 | > 100 | – | > 100 | > 100 | > 100 | > 100 | > 100 | > 100 | > 100 | > 100 | > 100 | > 100 | > 100 | – | – |
| C[C@]12CC[C@H](O)C=C1CC[C@@H]1[C@@H]2CC[C@]2(C)C(=N/O)/C(=C/c3ccncc3)C[C@@H]12 | 14.6 | 60.2 | 12.5 | 44 | 34.9 | 30.7 | 76 | > 100 | 39.5 | 38.8 | 29.8 | > 100 | 19.9 | 81.5 | – | 18 | 31.6 | 18.9 | > 100 | 22.6 |
| COc1ccc2oc(=O)c3c(c2c1C)OC(C)(C)C=C3 | > 100 | > 100 | > 100 | > 100 | > 100 | > 100 | – | > 100 | > 100 | > 100 | > 100 | > 100 | > 100 | > 100 | > 100 | > 100 | – | > 100 | > 100 | > 100 |
| CC(C)[Si](OC1=C(C(=O)N(C)c2ccccc2Cl)CCCC1)(C(C)C)C(C)C | 24.4 | 37.4 | 28.1 | 34.3 | 28.5 | 28.6 | 28.9 | 27.5 | 20.9 | 29.3 | 14.3 | 27.3 | 22.5 | – | 31 | 27.5 | 26.3 | 32.3 | > 100 | 29.3 |
| Cc1cc2c(cc1C)C(=O)C1(C2)Cc2c(ccc(C)c2C)C1=O (centres undefined) | > 100 | > 100 | > 100 | > 100 | – | > 100 | > 100 | > 100 | > 100 | > 100 | > 100 | > 100 | > 100 | > 100 | – | > 100 | > 100 | – | > 100 | > 100 |
